Test results taken from patent US7411064B2, “1-Heterocyclylalkyl-3-sulfonylazaindole or -azaindazole derivatives as 5-hydroxytryptamine-6 ligands” (Wyeth, priority 2002, dated 2008).
Counter-ions that a name gives are not always drawn.

Molecular target: human cloned 5-HT6 receptors (Homo sapiens, UniProt P50406)
Sequence (P50406 whole entry): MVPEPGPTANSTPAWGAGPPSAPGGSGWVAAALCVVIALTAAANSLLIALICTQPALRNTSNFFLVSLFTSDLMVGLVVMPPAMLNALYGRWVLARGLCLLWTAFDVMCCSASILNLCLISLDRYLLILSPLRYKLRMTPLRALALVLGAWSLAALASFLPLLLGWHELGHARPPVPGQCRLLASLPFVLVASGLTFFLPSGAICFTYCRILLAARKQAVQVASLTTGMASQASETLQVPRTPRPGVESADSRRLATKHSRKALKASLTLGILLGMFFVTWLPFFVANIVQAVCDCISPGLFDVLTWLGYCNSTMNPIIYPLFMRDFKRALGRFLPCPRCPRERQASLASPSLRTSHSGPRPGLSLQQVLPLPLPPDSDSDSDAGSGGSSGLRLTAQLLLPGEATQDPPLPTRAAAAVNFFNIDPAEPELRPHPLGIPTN
With `O=S(=O)(c1cccc(Cl)c1)c1cn(CC2CCCN2Cc2ccccc2)c2ncccc12` (stereo not shown) [Example 6, 1-[(1-Benzylpyrrolidin-2-yl)methyl]-3-(3-chlorophenylsulfonyl)-1H-pyrrolo[2,3-b]pyridine] the Ki was 132 nM. In the case of `CN1CCCC1Cn1cc(S(=O)(=O)c2cccc(F)c2)c2cccnc21` (stereo not shown) [Example 12], the Ki is reported as 6 nM. Work on `O=S(=O)(c1ccccc1)c1cn(C[C@@H]2CCCN2)c2ncccc12` [Example 4, 3-(Phenylsulfonyl)-1-[(2S)-pyrrolidin-2-ylmethyl]-1H-pyrrolo[2,3-b]pyridine Hydrochloride] yielded a Ki of 66 nM. `O=S(=O)(c1cn(CC2CCCN2Cc2ccccc2)c2ncccc12)c1c(Cl)nc2sccn12` (stereo not shown) [Example 13] showed a Ki of 57 nM. With `O=S(=O)(c1cccc(F)c1)c1cn(CC2CCCN2)c2ncccc12` (stereo not shown) [Example 11] the Ki was 9 nM. In the case of `O=S(=O)(c1cccc(F)c1)c1cn(CC2CCCN2Cc2ccccc2)c2ncccc12` (stereo not shown) [Example 10], the Ki is reported as 174 nM. Compound `O=S(=O)(c1cn(CC2CCCN2)c2ncccc12)c1c(Cl)nc2sccn12` (stereo not shown) [Example 14] has a Ki of 2 nM. With `CN1CCCC1Cn1cc(S(=O)(=O)c2cccc(Cl)c2)c2cccnc21` (stereo not shown) [Example 8, 3-(3-Chlorophenylsulfonyl)-1-[(1-methylpyrrolidin-2-yl)methyl]-1H-pyrrolo[2,3-b]pyridine Hydrochloride] the Ki was 7 nM. In the case of `O=S(=O)(c1ccc(Cl)s1)c1cn(CC2CCCN2)c2ncccc12` (stereo not shown) [Example 15], the Ki is reported as 7 nM. `O=S(=O)(c1ccccc1)c1cn(C[C@H]2CCCN2)c2ncccc12` [Example 3, 3-(Phenylsulfonyl)-1-[(2R)-pyrrolidin-2-ylmethyl]-1H-pyrrolo[2,3-b]pyridine Hydrochloride] gave a Ki of 12 nM. For `O=S(=O)(c1cccc(Cl)c1)c1cn(CC2CCCN2)c2ncccc12` (stereo not shown) [Example 7, 3-(3-Chlorophenylsulfonyl)-1-(pyrrolidin-2-ylmethyl)-1H-pyrrolo[2,3-b]pyridine], the Ki was 3 nM. `O=S(=O)(c1ccccc1)c1cn(CC2CCCN2Cc2ccccc2)c2ncccc12` (stereo not shown) [Example 9] gave a Ki of 163 nM.

System: not given
With `O=S(=O)(c1ccc(Cl)s1)c1cn(CC2CCCN2)c2ncccc12` (stereo not shown) (as salt: hydrochloride) [Example 15] the melting point was 106 to 107 °C. `O=S(=O)(c1ccccc1)c1cn(CC2CCCN2Cc2ccccc2)c2ncccc12` (stereo not shown) (as salt: hydrochloride) [Example 9] showed a melting point of 218 to 220 °C. Work on `O=S(=O)(c1cccc(F)c1)c1cn(CC2CCCN2Cc2ccccc2)c2ncccc12` (stereo not shown) (as salt: hydrochloride) [Example 10] yielded a melting point of 128 to 129 °C. For `O=S(=O)(c1cn(CC2CCCN2)c2ncccc12)c1c(Cl)nc2sccn12` (stereo not shown) (as salt: hydrochloride) [Example 14], the melting point was 246 to 247 °C. Compound `O=S(=O)(c1cn(CC2CCCN2Cc2ccccc2)c2ncccc12)c1c(Cl)nc2sccn12` (stereo not shown) [Example 13] has a melting point of 102 to 103 °C. With `O=S(=O)(c1cccc(F)c1)c1cn(CC2CCCN2)c2ncccc12` (stereo not shown) (as salt: hydrochloride) [Example 11] the melting point was 181 to 182 °C. Work on `CN1CCCC1Cn1cc(S(=O)(=O)c2cccc(F)c2)c2cccnc21` (stereo not shown) (as salt: hydrochloride) [Example 12] yielded a melting point of 208 to 209 °C.
